What follows are compounds tested against C-Raf FL (full length CRAF with Y340E and Y341E activating mutations, co-expressed with h14-3-3 zeta) (Homo sapiens (Human), UniProt P04049, Y340E/Y341E) (assay: In vitro Raf activity determination, AlphaScreen p-MEK readout, c-Raf (C-Raf FL)). Conditions: c-Raf approximately 4 nM, ATP 1 μM, pre-incubation 60 minutes, reaction 1 hour.
C-Raf FL (full length CRAF with Y340E and Y341E activating mutations, co-expressed with h14-3-3 zeta), sequence (P04049 whole entry Y340E/Y341E): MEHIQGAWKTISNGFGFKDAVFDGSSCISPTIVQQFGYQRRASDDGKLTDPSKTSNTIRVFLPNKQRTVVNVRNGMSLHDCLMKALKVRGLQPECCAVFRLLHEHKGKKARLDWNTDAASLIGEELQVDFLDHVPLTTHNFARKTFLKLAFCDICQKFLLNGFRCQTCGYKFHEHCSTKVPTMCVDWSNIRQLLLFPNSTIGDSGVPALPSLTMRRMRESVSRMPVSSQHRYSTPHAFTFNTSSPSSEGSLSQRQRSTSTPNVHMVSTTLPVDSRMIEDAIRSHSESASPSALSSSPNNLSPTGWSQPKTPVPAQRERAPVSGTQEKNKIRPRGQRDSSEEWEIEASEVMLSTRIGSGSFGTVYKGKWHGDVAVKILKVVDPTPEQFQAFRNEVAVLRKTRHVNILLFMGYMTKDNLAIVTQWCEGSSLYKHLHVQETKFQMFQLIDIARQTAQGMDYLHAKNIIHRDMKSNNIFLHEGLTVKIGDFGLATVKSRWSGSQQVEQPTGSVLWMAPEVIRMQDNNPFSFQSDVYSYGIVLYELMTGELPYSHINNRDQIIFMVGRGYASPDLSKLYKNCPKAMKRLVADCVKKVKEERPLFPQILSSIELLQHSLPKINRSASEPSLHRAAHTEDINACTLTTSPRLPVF
C-Raf FL (full length CRAF with Y340E and Y341E activating mutations, co-expressed with h14-3-3 zeta), sequence (P63104 whole entry partner): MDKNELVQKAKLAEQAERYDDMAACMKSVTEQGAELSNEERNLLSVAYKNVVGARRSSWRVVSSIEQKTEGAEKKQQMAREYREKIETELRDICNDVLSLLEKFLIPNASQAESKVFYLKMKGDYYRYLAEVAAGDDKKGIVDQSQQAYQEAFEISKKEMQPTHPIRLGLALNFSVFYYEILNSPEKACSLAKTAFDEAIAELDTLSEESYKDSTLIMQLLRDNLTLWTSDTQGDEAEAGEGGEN
Assay type: biochemical
Summary of the method: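 Full-length C-Raf (~4 nM) pre-incubated 60 min at room temperature with compound and kinase-dead biotinylated MEK1 (~10 nM) in Tris pH 7.5, 15 mM MgCl2, BSA, DTT. Reaction started with 1 μM ATP and run 1 h at room temperature. Phospho-MEK detected by AlphaScreen with anti-p-MEK antibody.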
`Cc1ccc(NC(=O)c2ccnc(C(C)(F)F)c2)cc1-c1cnc2c(c1)N1CCOCC1C(CS(C)(=O)=O)C2` (centres unmarked) [Example 99, 2-(1,1-difluoroethyl)-N-(4-methyl-3-(5-((methylsulfonyl)methyl)-1,2,4,4a,5,6-hexahydro-[1,4]oxazino[4,3-a][1,5]naphthyridin-9-yl)phenyl)isonicotinamide] gave an IC50 of 0.038 nM.
With `Cc1ccc(NC(=O)c2ccnc(C(F)(F)F)c2)cc1-c1cnc2c(c1)N1CCOC[C@H]1C[C@H]2O` [Example 102, N-(3-((4aR,6R)-6-Hydroxy-1,2,4,4a,5,6-hexahydro-[1,4]oxazino[4,3-a][1,5]naphthyridin-9-yl)-4-methylphenyl)-2-(trifluoromethyl)isonicotinamide] the IC50 was under 0.0017 nM.
Work on `Cc1ccc(NC(=O)c2ccnc(C(F)(F)F)c2)cc1-c1cnc2c(c1)N1CCOC[C@@H]1C[C@@H]2O` [Example 103, N-(3-((4aS,6S)-6-hydroxy-1,2,4,4a,5,6-hexahydro-[1,4]oxazino[4,3-a][1,5]naphthyridin-9-yl)-4-methylphenyl)-2-(trifluoromethyl)isonicotinamide] yielded an IC50 of 0.013 nM.
With `Cc1ncc(NC(=O)c2cccc(C(F)(F)F)c2)cc1-c1cnc2c(c1)N1CCOC[C@H]1C[C@H]2O` [Example 105, N-(5-((4aR,6R)-6-Hydroxy-1,2,4,4a,5,6-hexahydro-[1,4]oxazino[4,3-a][1,5]naphthyridin-9-yl)-6-methylpyridin-3-yl)-3-(trifluoromethyl)benzamide] the IC50 was 0.045 nM.
With `Cc1ncc(NC(=O)c2cccc(C(F)(F)F)c2)cc1-c1cnc2c(c1)N1CCOC[C@@H]1C[C@@H]2O` [Example 106, N-(5-((4aS,6S)-6-Hydroxy-1,2,4,4a,5,6-hexahydro-[1,4]oxazino[4,3-a][1,5]naphthyridin-9-yl)-6-methylpyridin-3-yl)-3-(trifluoromethyl)benzamide] the IC50 was 0.012 nM.
With `Cc1ccc(NC(=O)c2ccnc(C(C)(F)F)c2)cc1-c1cnc2c(c1)N1CCOC[C@H]1C[C@H]2O` [Example 108, 2-(1,1-Difluoroethyl)-N-(3-((4aR,6R)-6-hydroxy-1,2,4,4a,5,6-hexahydro-[1,4]oxazino[4,3-a][1,5]naphthyridin-n-9-yl)-4-methylphenyl)isonicotinamide] the IC50 was 0.013 nM.
With `Cc1ccc(NC(=O)c2ccnc(C(C)(F)F)c2)cc1-c1cnc2c(c1)N1CCOC[C@@H]1C[C@@H]2O` [Example 109, 2-(1,1-difluoroethyl)-N-(3-((4aS,6S)-6-hydroxy-1,2,4,4a,5,6-hexahydro-[1,4]oxazino[4,3-a][1,5]naphthyridin-n-9-yl)-4-methylphenyl)isonicotinamide] the IC50 was 0.0057 nM.
Work on `Cc1ccc(NC(=O)c2ccnc(C(C)(F)F)c2)cc1-c1cnc2c(c1)N1CCOC[C@H]1[C@H](CO)C2` [Example 117, 2-(1,1-Difluoroethyl)-N-(3-((4aR,5R)-5-(hydroxymethyl)-1,2,4,4a,5,6-hexahydro-[1,4]oxazino[4,3-a][1,5]naphthyridin-9-yl)-4-methylphenyl)isonicotinamide] yielded an IC50 of 0.0047 nM.
`Cc1ccc(NC(=O)c2ccnc(C(C)(F)F)c2)cc1-c1cnc2c(c1)N1CCOC[C@@H]1[C@@H](CO)C2` [Example 118, 2-(1,1-difluoroethyl)-N-(3-((4aS,5S)-5-(hydroxymethyl)-1,2,4,4a,5,6-hexahydro-[1,4]oxazino[4,3-a][1,5]naphthyridin-9-yl)-4-methylphenyl)isonicotinamide] showed an IC50 of 0.0046 nM.
`Cc1ncc(NC(=O)c2cccc(C(F)(F)F)c2)cc1-c1cnc2c(c1)N1CCOC[C@H]1[C@H](CO)C2` [Example 120, N-(5-((4aR,5R)-5-(Hydroxymethyl)-1,2,4,4a,5,6-hexahydro-[1,4]oxazino[4,3-a][1,5]naphthyridin-9-yl)-6-methylpyridin-3-yl)-3-(trifluoromethyl)benzamide] was tested, and the IC50 was 0.011 nM.
Work on `Cc1ncc(NC(=O)c2cccc(C(F)(F)F)c2)cc1-c1cnc2c(c1)N1CCOC[C@@H]1[C@@H](CO)C2` [Example 121, N-(5-((4aS,5S)-5-(hydroxymethyl)-1,2,4,4a,5,6-hexahydro-[1,4]oxazino[4,3-a][1,5]naphthyridin-9-yl)-6-methylpyridin-3-yl)-3-(trifluoromethyl)benzamide] yielded an IC50 of 0.0095 nM.
In the case of `CCN1C(=O)C[C@@H]2COCCN2c2cc(-c3cc(NC(=O)c4ccnc(C(C)(F)F)c4)ccc3C)cnc21` [Example 126, (R)-2-(1,1-Difluoroethyl)-N-(3-(7-ethyl-6-oxo-1,2,4a,5,6,7-hexahydro-4H-[1,4]oxazino[4,3-d]pyrido[2,3-b][1,4]diazepin-10-yl)-4-methylphenyl)isonicotinamide], the IC50 is reported as 0.016 nM.
Work on `CCN1C(=O)C[C@H]2COCCN2c2cc(-c3cc(NC(=O)c4ccnc(C(C)(F)F)c4)ccc3C)cnc21` [Example 127, (S)-2-(1,1-difluoroethyl)-N-(3-(7-ethyl-6-oxo-1,2,4a,5,6,7-hexahydro-4H-[1,4]oxazino[4,3-d]pyrido[2,3-b][1,4]diazepin-10-yl)-4-methylphenyl)isonicotinamide] yielded an IC50 of 0.048 nM.
`CCN1C(=O)C[C@@H]2COCCN2c2cc(-c3cc(NC(=O)c4ccnc(C(F)(F)F)c4)ccc3C)cnc21` [Example 129, (R)-N-(3-(7-Ethyl-6-oxo-1,2,4a,5,6,7-hexahydro-4H-[1,4]oxazino[4,3-d]pyrido[2,3-b][1,4]diazepin-10-yl)-4-methylphenyl)-2-(trifluoromethyl)isonicotinamide] gave an IC50 of 0.18 nM.
With `CCN1C(=O)C[C@H]2COCCN2c2cc(-c3cc(NC(=O)c4ccnc(C(F)(F)F)c4)ccc3C)cnc21` [Example 130, (S)-N-(3-(7-ethyl-6-oxo-1,2,4a,5,6,7-hexahydro-4H-[1,4]oxazino[4,3-d]pyrido[2,3-b][1,4]diazepin-10-yl)-4-methylphenyl)-2-(trifluoromethyl)isonicotinamide] the IC50 was 0.37 nM.
`Cc1ccc(NC(=O)c2ccnc(C(C)(F)F)c2)cc1-c1cc2c(nn1)OC(C)(C)[C@@H]1COCCN21` [Example 137, (S)-2-(1,1-Difluoroethyl)-N-(3-(6,6-dimethyl-6a,7,9,10-tetrahydro-6H-[1,4]oxazino[4,3-d]pyridazino[3,4-b][1,4]oxazin-2-yl)-4-methylphenyl)isonicotinamide] showed an IC50 of 0.24 nM.
With `Cc1ccc(NC(=O)c2ccnc(C(C)(F)F)c2)cc1-c1cc2c(nn1)OC(C)(C)[C@H]1COCCN21` [Example 138, (R)-2-(1,1-Difluoroethyl)-N-(3-(6,6-dimethyl-6a,7,9,10-tetrahydro-6H-[1,4]oxazino[4,3-d]pyridazino[3,4-b][1,4]oxazin-2-yl)-4-methylphenyl)isonicotinamide] the IC50 was 0.59 nM.
`Cc1ccc(NC(=O)c2ccnc(C(C)(C)F)c2)cc1-c1cnc2c(c1)N1CCOC[C@H]1C[C@H]2O` [Example 142, 2-(2-fluoropropan-2-yl)-N-(3-((4aR,6R)-6-hydroxy-1,2,4,4a,5,6-hexahydro-[1,4]oxazino[4,3-a][1,5]naphthyridin-9-yl)-4-methylphenyl)isonicotinamide] was tested, and the IC50 was 0.021 nM.
`Cc1ccc(NC(=O)c2ccnc(C(C)(C)F)c2)cc1-c1cnc2c(c1)N1CCOC[C@@H]1C[C@@H]2O` [Example 143, 2-(2-fluoropropan-2-yl)-N-(3-((4aS,6S)-6-hydroxy-1,2,4,4a,5,6-hexahydro-[1,4]oxazino[4,3 a][1,5]naphthyridin 9-yl)-4-methylphenyl)isonicotinamide] gave an IC50 of 0.0088 nM.
Compound `Cc1ccc(NC(=O)c2cncc(C(F)(F)F)c2)cc1-c1cnc2c(c1)N1CCOC[C@H]1C[C@H]2O` [Example 145, N-(3-((4aR,6R)-6-hydroxy-1,2,4,4a,5,6-hexahydro-[1,4]oxazino[4,3-a][1,5]naphthyridin-9-yl)-4-methylphenyl)-5-(trifluoromethyl)nicotinamide] has an IC50 of 0.017 nM.
Work on `Cc1ccc(NC(=O)c2cncc(C(F)(F)F)c2)cc1-c1cnc2c(c1)N1CCOC[C@@H]1C[C@@H]2O` [Example 146, N-(3-((4aS,6S)-6-hydroxy-1,2,4,4a,5,6-hexahydro-[1,4]oxazino[4,3-a][1,5]naphthyridin-9-yl)-4-methylphenyl)-5-(trifluoromethyl)nicotinamide] yielded an IC50 of 0.012 nM.
`Cc1ccc(NC(=O)c2ccnc(C(C)(C)C#N)c2)cc1-c1cnc2c(c1)N1CCOC[C@H]1C[C@H]2O` [Example 150, 2-(2-cyanopropan-2-yl)-N-(3-((4aR,6R)-6-hydroxy-1,2,4,4a,5,6-hexahydro-[1,4]oxazino[4,3-a][1,5]naphthyridin-9-yl)-4-methylphenyl)isonicotinamide] was tested, and the IC50 was 0.079 nM.
`Cc1ccc(NC(=O)c2ccnc(C(C)(C)C#N)c2)cc1-c1cnc2c(c1)N1CCOC[C@@H]1C[C@@H]2O` [Example 151, 2-(2-cyanopropan-2-yl)-N-(3-((4aS,6S)-6-hydroxy-1,2,4,4a,5,6-hexahydro-[1,4]oxazino[4,3-a][1,5]naphthyridin-9-yl)-4-methylphenyl)isonicotinamide] showed an IC50 of 0.014 nM.
Work on `Cc1ccc(NC(=O)c2ccnc(C(F)(F)F)c2)cc1-c1cnc2c(c1)N1CCOC[C@H]1C1(COC1)C2` [Example 154, (R)-N-(4-methyl-3-(1′,2′,4′,4a′-tetrahydro-6′H-spiro[oxetane-3,5′-[1,4]oxazino[4,3-a][1,5]naphthyridin]-9′-yl)phenyl)-2-(trifluoromethyl)isonicotinamide] yielded an IC50 of 0.063 nM.
`Cc1ccc(NC(=O)c2ccnc(C(F)(F)F)c2)cc1-c1cnc2c(c1)N1CCOC[C@@H]1C1(COC1)C2` [Example 155, (S)-N-(4-methyl-3-(1′,2′,4′,4a′-tetrahydro-6′H-spiro[oxetane-3,5′-[1,4]oxazino[4,3-a][1,5]naphthyridin]-9′-yl)phenyl)-2-(trifluoromethyl)isonicotinamide] was tested, and the IC50 was 0.36 nM.
In the case of `Cc1ccc(NC(=O)c2ccnc(C(C)(F)F)c2)cc1-c1cnc2c(c1)N1CCOC[C@H]1C(C)(C)[C@H]2O` [Example 161, 2-(1,1-difluoroethyl)-N-(3-((4aR,6R)-6-hydroxy-5,5-dimethyl-1,2,4,4a,5,6-hexahydro-[1,4]oxazino[4,3-a][1,5]naphthyridin-9-yl)-4-methylphenyl)isonicotinamide], the IC50 is reported as 0.08 nM.
